Structures are written as SMILES.

Series [1] can be described thus: Solubility in various solvents. The class given is physicochemical.
For series [2], the system named is adrenergic receptor. In words: Agonistic/antagonistic activity on adrenergic receptor.
Series [3] deals with Atria. In words: Inhibition of isoproterenol-induced positive chronotropic effect in spontaneously beating isolated atria (organ bath). The format is cell-based, guinea pigs. The conditions noted are these: Cavia porcellus, 0.5 h; MY336-a 30 µg/ml, added 30 minutes before isoproterenol hydrochloride 10^-9 g/ml; atrial rate, isolated guinea pig atria; read-out: blocked the positive chronotropic effect induced by isoproterenol hydrochloride. On the procedure: Method: • Atria were rapidly isolated from guinea pigs (body weight: 500 - 700G) and mounted in an organ bath. The bath was filled with 30 ml oxygenated (95% 02, 5% C02) Krebs-Henseleit's solution at 31il°C. Atria were allowed to beat spontaneously and the contractions were isometrically recorded using force- displacement transducers. Resting force was adjusted to 0.5g. Then, atrial rate was measured. Then, a solution of isoproterenol hydrochloride in a very small amount of water was added thereto to make the isoproterenol hydrochloride concentration to be 10-^9 g/ml, and atrial rate was measured.
The solution was discarded and the bath was filled with krebs-Henseleit's solution, and allowed to stand until the atrial rate was brought back.
Then, a solution of MY336-a in a very small amount of 50% ethanol was added thereto to make the MY336-a concentration to be 30 µg/ml, and 30 minutes thereafter, a solution of isoproterenol hydrochloride in a very small amount of water was added thereto to make the isoproterenol hydrochloride concentration to be 10-^9 g/ml, and atrial rate was measured.

As for `COc1c(C)cc2c(c1O)C(CO)NC(CO)C2` (stereo not drawn) [MY336-a], the Solubility entry is “sparingly soluble” in series [1] (in acetone, hexane and ether); “readily soluble” in series [1] (in acidic water); “soluble” in series [1] (in water and methanol). Further, the “agonistic activity on adrenergic receptor” value in series [2] is listed as “no agonistic activity”. Also, in series [2], the “antagonistic activity on adrenergic receptor” value is recorded as “has an antagonistic activity”. Moreover, the inhibition at 30 µg/mL in series [3] came to 84.9%.
